What all share (test): Kinase selectivity, P33-radiolabeled assay
What all share (type): biochemical
Common to all, as to conditions: 10 μM ATP

One experiment deals with T1, TLK1 (Homo sapiens, UniProt Q9UKI8).
T1 construct: purchased Reaction Biology Corp
T1 sequence (Q9UKI8 1-766): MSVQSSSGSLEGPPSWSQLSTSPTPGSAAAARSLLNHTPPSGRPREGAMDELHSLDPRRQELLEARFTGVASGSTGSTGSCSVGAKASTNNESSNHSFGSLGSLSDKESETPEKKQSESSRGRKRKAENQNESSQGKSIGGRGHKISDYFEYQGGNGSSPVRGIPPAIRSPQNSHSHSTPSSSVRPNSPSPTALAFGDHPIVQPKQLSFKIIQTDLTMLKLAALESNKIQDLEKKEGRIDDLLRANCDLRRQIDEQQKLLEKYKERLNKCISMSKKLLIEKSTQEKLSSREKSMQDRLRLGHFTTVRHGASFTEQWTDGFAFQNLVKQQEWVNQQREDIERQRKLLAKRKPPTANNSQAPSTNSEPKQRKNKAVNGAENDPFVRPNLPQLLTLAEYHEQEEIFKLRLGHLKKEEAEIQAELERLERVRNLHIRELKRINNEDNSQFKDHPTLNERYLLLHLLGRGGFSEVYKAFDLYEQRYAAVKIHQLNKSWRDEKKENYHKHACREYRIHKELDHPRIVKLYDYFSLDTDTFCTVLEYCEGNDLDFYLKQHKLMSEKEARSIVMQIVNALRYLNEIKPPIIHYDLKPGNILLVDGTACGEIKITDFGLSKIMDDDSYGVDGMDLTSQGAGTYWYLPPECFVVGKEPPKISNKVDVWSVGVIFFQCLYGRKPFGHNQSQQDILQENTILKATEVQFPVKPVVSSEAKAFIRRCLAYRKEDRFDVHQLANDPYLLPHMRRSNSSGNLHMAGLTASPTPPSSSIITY
The procedure, abridged: (§1)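 Reactions contained 10 μM ATP and 10 μM test compound, each run in duplicate. Kinase activity is expressed as a percentage of DMSO-treated controls.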

The target in another experiment is T2, DRAK1/STK17A (Homo sapiens, UniProt Q9UEE5).
T2 construct: purchased Reaction Biology Corp
T2 sequence (Q9UEE5 1-414): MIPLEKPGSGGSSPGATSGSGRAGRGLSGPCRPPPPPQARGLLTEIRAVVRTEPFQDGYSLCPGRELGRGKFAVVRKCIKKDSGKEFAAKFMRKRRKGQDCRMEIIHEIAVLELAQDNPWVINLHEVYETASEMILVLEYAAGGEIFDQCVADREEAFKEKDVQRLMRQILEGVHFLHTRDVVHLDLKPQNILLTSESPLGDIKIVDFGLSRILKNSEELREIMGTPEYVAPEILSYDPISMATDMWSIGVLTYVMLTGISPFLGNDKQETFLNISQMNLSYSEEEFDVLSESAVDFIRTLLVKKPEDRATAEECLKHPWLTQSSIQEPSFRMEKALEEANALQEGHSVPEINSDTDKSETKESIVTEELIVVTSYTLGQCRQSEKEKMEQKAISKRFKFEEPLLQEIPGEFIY
The procedure, abridged: as §1

The target in the next experiment is T3, DYRK1/DYRK1A (Homo sapiens, UniProt Q13627).
T3 construct: purchased Reaction Biology Corp
The method in brief: as §1

The target in a further experiment is T4, CDK2/Cyclin A1 (Homo sapiens, UniProt P24941).
T4 construct: purchased Reaction Biology Corp
The method in brief:
as §1

The target of the next experiment is T5, MST4 (Homo sapiens, UniProt Q9P289).
T5 construct: purchased Reaction Biology Corp
The procedure, abridged: as §1

The target in another experiment is T6, GRK1 (Homo sapiens, UniProt Q15835).
T6 construct: purchased Reaction Biology Corp
T6 sequence (Q15835 1-563): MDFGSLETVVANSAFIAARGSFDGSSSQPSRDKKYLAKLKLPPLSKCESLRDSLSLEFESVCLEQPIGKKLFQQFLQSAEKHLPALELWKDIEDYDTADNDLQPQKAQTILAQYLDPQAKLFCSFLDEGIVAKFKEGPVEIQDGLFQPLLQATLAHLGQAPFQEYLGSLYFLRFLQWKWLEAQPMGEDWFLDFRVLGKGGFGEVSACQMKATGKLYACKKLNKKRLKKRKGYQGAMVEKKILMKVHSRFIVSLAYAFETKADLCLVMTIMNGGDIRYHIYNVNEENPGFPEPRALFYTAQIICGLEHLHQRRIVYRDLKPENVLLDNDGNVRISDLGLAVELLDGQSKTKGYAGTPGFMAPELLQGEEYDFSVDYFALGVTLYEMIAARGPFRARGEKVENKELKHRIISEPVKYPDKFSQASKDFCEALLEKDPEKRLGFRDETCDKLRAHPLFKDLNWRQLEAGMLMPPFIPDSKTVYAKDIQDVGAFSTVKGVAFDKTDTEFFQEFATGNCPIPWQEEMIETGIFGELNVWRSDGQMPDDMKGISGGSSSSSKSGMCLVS
The method in brief: as §1

Another experiment concerns the target T7, PHKg2 (Homo sapiens, UniProt P15735).
T7 construct: purchased Reaction Biology Corp
T7 sequence (P15735 1-406): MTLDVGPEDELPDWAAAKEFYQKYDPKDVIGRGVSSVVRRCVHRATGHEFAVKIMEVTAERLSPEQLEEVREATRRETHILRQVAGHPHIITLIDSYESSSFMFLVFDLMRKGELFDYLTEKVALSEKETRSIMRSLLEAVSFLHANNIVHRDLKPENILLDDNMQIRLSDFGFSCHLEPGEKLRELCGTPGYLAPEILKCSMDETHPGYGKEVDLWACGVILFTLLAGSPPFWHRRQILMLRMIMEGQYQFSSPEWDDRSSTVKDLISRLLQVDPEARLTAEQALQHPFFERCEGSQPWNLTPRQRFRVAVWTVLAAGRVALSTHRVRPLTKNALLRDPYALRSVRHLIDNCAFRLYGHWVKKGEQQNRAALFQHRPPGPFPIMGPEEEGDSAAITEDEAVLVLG
The procedure, abridged:
as §1

Where [1] appears, read: read-out: % Enzyme Activity (relative to DMSO controls) AVG.
[2] abbreviates: read-out: % Enzyme Activity (relative to DMSO controls) Data 1.
Where [3] appears, read: read-out: % Enzyme Activity (relative to DMSO controls) Data 2.

Read-outs that look alike come from different tables or passages of the source.

T5 sequence (Q9P289 whole entry): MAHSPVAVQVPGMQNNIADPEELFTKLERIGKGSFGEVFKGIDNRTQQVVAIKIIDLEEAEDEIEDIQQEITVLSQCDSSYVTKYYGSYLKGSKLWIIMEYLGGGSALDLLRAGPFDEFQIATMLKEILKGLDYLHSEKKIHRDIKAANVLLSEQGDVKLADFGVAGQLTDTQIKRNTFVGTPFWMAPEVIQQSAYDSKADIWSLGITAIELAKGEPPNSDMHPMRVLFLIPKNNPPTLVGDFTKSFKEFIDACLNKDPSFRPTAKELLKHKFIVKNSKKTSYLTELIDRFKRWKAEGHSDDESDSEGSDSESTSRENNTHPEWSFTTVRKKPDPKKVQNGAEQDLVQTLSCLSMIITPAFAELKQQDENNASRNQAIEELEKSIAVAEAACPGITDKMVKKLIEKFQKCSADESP

Consider `CC(C)(C)C(=O)N1N=CC[C@H]1c1ccccc1` [GSK′963], for which the remaining activity at 10 µM was 97.5% on TLK1 (setting [1]); 101% on TLK1 (setting [2]); 93.9% at TLK1 (setting [3]); 99.7% on DRAK1/STK17A (setting [1]); 98.1% on DRAK1/STK17A (setting [2]); 101% at DRAK1/STK17A (setting [3]). The remaining activity at 10 µM stood at 103% at DYRK1/DYRK1A (setting [1]); 103% on DYRK1/DYRK1A (setting [2]); 103% on DYRK1/DYRK1A (setting [3]); 107% on CDK2/Cyclin A1 (setting [1]); 107% on CDK2/Cyclin A1 (setting [2]); 107% at CDK2/Cyclin A1 (setting [3]). The remaining activity at 10 µM amounted to 104% on MST4 (setting [1]); 103% at MST4 (setting [2]); 105% on MST4 (setting [3]); 108% on GRK1 (setting [1]); 109% on GRK1 (setting [2]); 106% at GRK1 (setting [3]). Further, the remaining activity at 10 µM at PHKg2 (setting [1]) was 110%; at PHKg2 (setting [2]), 111%; at PHKg2 (setting [3]), 110%.
